Assay results from ChEMBL document CHEMBL3046148, “Synthesis and biological evaluation of resveratrolcoumarin hybrid compounds as potential antitumor agents” (Med Chem Res, 2013).

Experiments:
Format in all cases: functional, cell-based
K562 = assay: Cytotoxicity against Homo sapiens (human) K562 cells assessed as growth inhibition after 48 hr by MTT assay
MCF7 = assay: Cytotoxicity against Homo sapiens (human) MCF7 cells assessed as growth inhibition after 48 hr by MTT assay
[1] = Cytotoxicity against Homo sapiens (human) HCT28 cells assessed as growth inhibition after 48 hr by MTT assay
[2] = Homo sapiens, MCF7, 48 h, read-out: IC50
[3] = Homo sapiens, 48 h, read-out: IC50
[4] = Homo sapiens, K562, 48 h, read-out: IC50

SMILES | IC50 (K562; k562) | IC50 (MCF7; [2]) [µM] | IC50 [1, 3] [µM] | IC50 (MCF7; mcf7) | IC50 [1] | IC50 (K562; [4]) [µM]
COc1cc(/C=C\c2ccc3oc(=O)c(-c4ccc(OC)c(OC)c4)cc3c2)cc(OC)c1 [CIS-3-(3,4-DIMETHOXYPHENYL)-6-(3,5-DIMETHOXYSTYRYL)COUMARIN] | Not Active | 9 | 13.5 | – | – | –
COc1ccc(/C=C\c2ccc3oc(=O)c(-c4ccc(OC)c(OC)c4)cc3c2)cc1 [CIS-3-(3,4-DIMETHOXYPHENYL)-6-(4-METHOXYSTYRYL)COUMARIN] | Not Active | – | – | Not Active | Not Active | –
COc1ccc(-c2cc3cc(/C=C\c4ccccc4)ccc3oc2=O)cc1OC [CIS-3-(3,4-DIMETHOXYPHENYL)-6-STYRYLCOUMARIN] | Not Active | – | – | Not Active | Not Active | –
COc1ccc(-c2cc3cc(/C=C\c4ccccc4)ccc3oc2=O)cc1 [CIS-3-(4-METHOXYPHENYL)-6-STYRYLCOUMARIN] | Not Active | – | – | Not Active | Not Active | –
COc1ccc(-c2cc3cc(/C=C\c4cc(OC)cc(OC)c4)ccc3oc2=O)cc1 [CIS-6-(3,5-DIMETHOXYSTYRYL)-3-(4-METHOXYPHENYL)COUMARIN] | Not Active | – | – | Not Active | Not Active | –
COc1cc(/C=C\c2ccc3oc(=O)c(-c4ccccc4)cc3c2)cc(OC)c1 [CIS-6-(3,5-DIMETHOXYSTYRYL)-3-PHENYLCOUMARIN] | Not Active | – | – | Not Active | Not Active | –
COc1ccc(/C=C\c2ccc3oc(=O)c(-c4ccccc4)cc3c2)cc1 [CIS-6-(4-METHOXYSTYRYL)-3-PHENYLCOUMARIN] | – | 10.9 | 10.7 | – | – | 3.79
COc1cc(/C=C/c2ccc3oc(=O)c(-c4ccc(OC)c(OC)c4)cc3c2)cc(OC)c1 [TRANS-3-(3,4-DIMETHOXYPHENYL)-6-(3,5-DIMETHOXYSTYRYL)COUMARIN] | Not Active | 7.41 | 10.1 | – | – | –
COc1ccc(/C=C/c2ccc3oc(=O)c(-c4ccc(OC)c(OC)c4)cc3c2)cc1 [TRANS-3-(3,4-DIMETHOXYPHENYL)-6-(4-METHOXYSTYRYL)COUMARIN] | – | 4.23 | 7.14 | – | – | 8.76
COc1ccc(-c2cc3cc(/C=C/c4ccccc4)ccc3oc2=O)cc1OC [TRANS-3-(3,4-DIMETHOXYPHENYL)-6-STYRYLCOUMARIN] | Not Active | 14.5 | 10.8 | – | – | –
COc1ccc(-c2cc3cc(/C=C/c4cc(OC)cc(OC)c4)ccc3oc2=O)cc1 [TRANS-6-(3,5-DIMETHOXYSTYRYL)-3-(4-METHOXYPHENYL)COUMARIN] | – | 11.2 | 19.2 | – | – | 11.5
COc1cc(/C=C/c2ccc3oc(=O)c(-c4ccccc4)cc3c2)cc(OC)c1 [TRANS-6-(3,5-DIMETHOXYSTYRYL)-3-PHENYLCOUMARIN] | Not Active | 13.5 | – | – | Not Active | –
COc1ccc(/C=C/c2ccc3oc(=O)c(-c4ccccc4)cc3c2)cc1 [TRANS-6-(4-METHOXYSTYRYL)-3-PHENYLCOUMARIN] | – | 7.32 | 3.78 | – | – | 13
COc1ccc(/C=C/c2cc(OC)cc(OC)c2)cc1 [TRISMETHOXYRESVERATROL] | – | 8.41 | 4.83 | – | – | 6.39
